# Experimental data from patent US20210147381A1, “1,2,3,4-SUBSTITUTED QUINOLINE COMPOUNDS AS SIP MODULATORS” (AbbVie Deutschland GmbH & Co. KG, priority 2017, published 2021).
# Where a name gives a salt, the structure may show the parent alone. Read-outs that look alike come from different tables or passages of the source.
# Key:
# Type in all cases: cell-based
# [1] = biological target: T1, human S1P1 receptor (S1PR1) (Homo sapiens, UniProt P21453); assay: Intracellular Ca2+ release (method 1), agonist potency, S1P1; conditions: CHO-K1 cells expressing human S1PR1
# T1 construct: host or cells: CHO-K1
# T1 sequence (P21453 whole entry): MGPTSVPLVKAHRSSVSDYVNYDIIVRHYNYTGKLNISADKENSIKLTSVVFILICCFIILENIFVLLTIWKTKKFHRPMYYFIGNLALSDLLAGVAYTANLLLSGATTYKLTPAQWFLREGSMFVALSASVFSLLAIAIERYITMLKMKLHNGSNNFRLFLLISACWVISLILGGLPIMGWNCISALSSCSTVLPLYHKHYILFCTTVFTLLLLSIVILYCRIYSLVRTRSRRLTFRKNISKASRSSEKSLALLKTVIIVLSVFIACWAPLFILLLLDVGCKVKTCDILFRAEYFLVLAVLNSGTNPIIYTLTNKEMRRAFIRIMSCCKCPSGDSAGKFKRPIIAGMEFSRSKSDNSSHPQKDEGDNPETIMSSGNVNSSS
# Description: (§1) Agonistic activity and efficacy of compounds was assessed in recombinant cells using method 1 described below.
# (§2) Agonist potency and efficacy were assessed by measurement of intracellular Ca^2+ release. Recombinant CHO-K1 cells (Euroscreen, Brussels, Belgium) expressing human S1PR5, S1PR1, S1PR3 or S1PR4 receptors, aequorin, and GTP binding protein Gq/i5 were cultured using a medium containing nutrient mixture F-12 Ham (Sigma-Aldrich) with 10% FBS, and 100 μg/mL gentamicin and equilibrated at 5% CO2.
# (§3) 15,000 cells in 20 μL medium were seeded into Biocoat poly-D-Lysine coated 384 well plates (Becton Dickinson #35-6663) and grown to 95% confluency after 24 h.
# (§4) Culture medium was replaced by an assay buffer consisting of HBBS with Ca^2+ and Mg^2+ (Invitrogen #14025-050), 20 mmol/L Hepes (Sigma-Aldrich #H-3375), 2.5 mmol/L probenecid (Sigma-Aldrich #P-8761, and 0.1% BSA (Sigma-Aldrich #A-7030) pH 7.4. The Calcium 5 no-wash FLIPR assay kit (Molecular Devices #5000625) was performed as described in the kit instructions. Cells were incubated with Calcium 5 dye for 1 h at 37° C., 5% CO2 in the dark. After 45 min adaptation to RT assessment of agonist stimulation of intracellular Ca^2+ release was performed by addition of test compounds at various concentrations obtained by serial dilution. Phospho-fingolimod was used as positive control and reference agonist (intrinsic activity 100%).
# (§5) Agonism of test compounds at the human S1Px receptors were characterized by the EC50 values (potencies) deduced from a nonlinear 4 parametric logistic curve fit to the measured fluorescence data after normalization to the lower and upper plateaus of the fitted reference agonist's (phospho-fingolimod)effect curve and by their efficacy (Emax) values represented by their maximum achievable effects in % of the reference agonist's efficacy, which is defined as an Emax of 100%.
# [2] = biological target: T2, human S1P3 receptor (S1PR3) (Homo sapiens, UniProt Q99500); assay: Intracellular Ca2+ release (method 1), agonist potency, S1P3
# T2 construct: host or cells: CHO-K1
# T2 sequence (Q99500 whole entry): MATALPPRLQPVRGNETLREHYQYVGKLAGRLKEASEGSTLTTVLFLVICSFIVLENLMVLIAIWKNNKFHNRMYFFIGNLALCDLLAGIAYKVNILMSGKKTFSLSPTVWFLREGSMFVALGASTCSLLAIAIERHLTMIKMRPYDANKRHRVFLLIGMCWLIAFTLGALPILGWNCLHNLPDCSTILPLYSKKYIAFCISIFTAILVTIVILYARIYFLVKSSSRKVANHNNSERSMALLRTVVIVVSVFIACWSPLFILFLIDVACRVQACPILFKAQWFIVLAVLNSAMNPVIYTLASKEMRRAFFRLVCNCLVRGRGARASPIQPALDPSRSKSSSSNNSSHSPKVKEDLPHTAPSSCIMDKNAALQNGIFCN
# Description: as §1, §2, §3, §4, §5
# [3] = biological target: T3, human S1P4 receptor (S1PR4) (Homo sapiens, UniProt O95977); assay: Intracellular Ca2+ release (method 1), agonist potency, S1P4; conditions: CHO-K1 cells expressing human S1PR4
# T3 construct: host or cells: CHO-K1
# T3 sequence (O95977 1-384): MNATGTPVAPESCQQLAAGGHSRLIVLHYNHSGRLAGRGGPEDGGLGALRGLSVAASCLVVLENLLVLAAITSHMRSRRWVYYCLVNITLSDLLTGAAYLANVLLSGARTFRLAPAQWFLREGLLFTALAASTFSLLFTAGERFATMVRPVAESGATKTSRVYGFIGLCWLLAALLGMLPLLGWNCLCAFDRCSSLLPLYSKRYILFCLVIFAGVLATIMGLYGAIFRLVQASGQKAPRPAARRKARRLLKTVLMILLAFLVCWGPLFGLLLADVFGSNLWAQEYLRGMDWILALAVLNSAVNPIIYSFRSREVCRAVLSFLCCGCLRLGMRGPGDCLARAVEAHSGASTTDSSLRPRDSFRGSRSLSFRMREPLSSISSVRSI
# Description: as §1, §2, §3, §4, §5
# [4] = biological target: T4, human S1P5 receptor (S1PR5) (Homo sapiens, UniProt Q9H228); assay: Intracellular Ca2+ release (method 1), agonist potency and efficacy, S1P5; conditions: for Emax: read-out: hS1P5 EMax
# T4 construct: host or cells: CHO-K1
# T4 sequence (Q9H228 whole entry): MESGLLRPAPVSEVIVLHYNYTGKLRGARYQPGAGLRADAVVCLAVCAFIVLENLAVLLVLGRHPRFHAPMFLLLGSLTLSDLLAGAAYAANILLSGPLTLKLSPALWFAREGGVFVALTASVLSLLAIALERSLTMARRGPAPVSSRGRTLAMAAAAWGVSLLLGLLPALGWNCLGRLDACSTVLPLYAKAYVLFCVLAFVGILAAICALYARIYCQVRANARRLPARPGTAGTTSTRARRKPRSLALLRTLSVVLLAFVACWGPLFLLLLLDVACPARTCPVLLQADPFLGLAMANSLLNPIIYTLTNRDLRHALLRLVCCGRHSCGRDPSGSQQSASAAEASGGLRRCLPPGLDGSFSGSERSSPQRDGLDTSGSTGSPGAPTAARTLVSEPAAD
# Description: as §1, §2, §3, §4, §5
# [5] = CHO-K1 cells expressing human S1PR3
# [6] = maximum effect in % of reference agonist phospho-fingolimod (100%)
# [7] = recombinant CHO-K1 cells expressing human S1PR5, aequorin, Gq/i5, Ca2+ release, read-out: S1P5 EC50 range
# [8] = text value for reference compounds lacking the spiro-linked group, read-out: S1P5 EC50
# [9] = value for reference compounds, % of phospho-fingolimod efficacy
EC50 ([1]; cells given as bound) [nM],"EC50 [2, 5] [nM]",EC50 [3] [nM],"Emax [4, 6] [%]","EC50 [4, 7] [nM]",EC50 [1] [nM],EC50 ([3]; cells given as bound) [nM],EC50 ([2]; value for reference compounds) [nM],"EC50 [4, 8] [nM]","Emax [4, 9] [%]",SMILES
> 1000,> 1000,100 to 1000,< 50,10 to 100,,,,,,"O=C(O)CCCN1Cc2ccc(OCc3cccc(OC(F)(F)F)c3)cc2C2(CC2)C1 [Compound 20, 4-(6′-((3-(Trifluoromethoxy)benzyl)oxy)-1′H-spiro[cyclopropane-1,4′-isoquinolin]-2′(3′H)-yl)butanoic acid]"
,> 1000,,> 100,< 10,100 to 1000,> 1000,,,,"CC(C)c1ccc(C#Cc2ccc3c(c2)C2(CC2)CN(CCC(=O)O)C3)cc1 [Compound 31, 3-(6′-((4-isopropylphenyl)ethynyl)-1′H-spiro[cyclopropane-1,4′-isoquinolin]-2′(3′H)-yl)propanoic acid acetic acid salt (1:1)]"
> 1000,> 1000,100 to 1000,50 to 100,10 to 100,,,,,,"CCc1cccc(Cl)c1COc1ccc2c(c1)C1(CC1)CN(C(C)C(=O)O)C2 (stereo not drawn) [Compound 28, 2-(6′-((2-Chloro-6-ethylbenzyl)oxy)-1′H-spiro[cyclopropane-1,4′-isoquinolin]-2′(3′H)-yl)propanoic acid]"
> 1000,> 1000,100 to 1000,50 to 100,< 10,,,,,,"O=C(O)CCN1Cc2ccc(C#Cc3ccccc3Cl)cc2C2(CC2)C1 [Compound 35, 3-(6′-((2-chlorophenyl)ethynyl)-1′H-spiro[cyclopropane-1,4′-isoquinolin]-2′(3′H)-yl)propanoic acid]"
,,,,,,,> 1000,19.2,41,"O=C(O)CCN1CCc2cc(C#Cc3c(Cl)cccc3Cl)ccc2C1 [Reference compound 2, 3-(6-((2,6-dichlorophenyl)ethynyl)-3,4-dihydroisoquinolin-2 (1H)-yl)propanoic acid, reference compound]"
> 1000,> 1000,100 to 1000,50 to 100,< 10,,,,,,"CC(CC(=O)O)CN1Cc2ccc(C#Cc3c(F)cccc3F)cc2C2(CC2)C1 (stereo not drawn) [Compound 58, 4-(6′-((2,6-difluorophenyl)ethynyl)-1′H-spiro[cyclopropane-1,4′-isoquinolin]-2′(3′H)-yl)-3-methylbutanoic acid]"
> 1000,> 1000,10 to 100,50 to 100,< 10,,,,,,"O=C(O)CCN1Cc2ccc(C#Cc3c(Cl)cccc3Cl)cc2C2(CC2)C1 [Compound 11, 3-(6′-((2,6-dichlorophenyl)ethynyl)-1′H-spiro[cyclopropane-1,4′-isoquinolin]-2′(3′H)-yl)propanoic acid]"
> 1000,,,> 100,100 to 1000,,> 1000,,,,"CC(CC(=O)O)CN1Cc2ccc(C#Cc3ccc(OC(F)(F)F)cc3)cc2C2(CC2)C1 (stereo not drawn) [Compound 65, 3-methyl-4-(6′-((4-(trifluoromethoxy)phenyl)ethynyl)-1′H-spiro[cyclopropane-1,4′-isoquinolin]-2′(3′H)-yl)butanoic acid]"
> 1000,,,50 to 100,1000 to 10000,,> 1000,,,,"O=C(O)CCCN1Cc2ccc(C#Cc3ccc4c(c3)OCO4)cc2C2(CC2)C1 [Compound 56, 4-(6′-(benzo[d][1,3]dioxol-5-ylethynyl)-1′H-spiro[cyclopropane-1,4′-isoquinolin]-2′(3′H)-yl)butanoic acid]"
> 1000,,,50 to 100,1000 to 10000,,> 1000,,,,"O=C(O)CCCN1Cc2ccc(C#Cc3ccc(=O)n(CC4CC4)c3)cc2C2(CC2)C1 [Compound 4, 4-(6′-((1-(cyclopropylmethyl)-6-oxo-1,6-dihydropyridin-3-yl)ethynyl)-1′H-spiro[cyclopropane-1,4′-isoquinolin]-2′(3′H)-yl)butanoic acid]"
> 1000,,,> 100,100 to 1000,,> 1000,,,,"CC(C)Oc1ccc(C#Cc2ccc3c(c2)C2(CC2)CN(CCCC(=O)O)C3)nc1 [Compound 52, 4-(6′-((5-isopropoxypyridin-2-yl)ethynyl)-1′H-spiro[cyclopropane-1,4′-isoquinolin]-2′(3′H)-yl)butanoic acid]"
> 1000,,,< 50,1000 to 10000,,> 1000,,,,"COc1ncc(C#Cc2ccc3c(c2)C2(CC2)CN(CCCC(=O)O)C3)cc1F [Compound 55, 4-(6′-((5-fluoro-6-methoxypyridin-3-yl)ethynyl)-1′H-spiro[cyclopropane-1,4′-isoquinolin]-2′(3′H)-yl)butanoic acid]"
> 1000,,,50 to 100,100 to 1000,,> 1000,,,,"CC(C)Oc1ccc(C#Cc2ccc3c(c2)C2(CC2)CN(CC2(C(=O)O)CC2)C3)cc1 [Compound 8, 1-((6′-((4-isopropoxyphenyl)ethynyl)-1′H-spiro[cyclopropane-1,4′-isoquinolin]-2′(3′H)-yl)methyl)cyclopropanecarboxylic acid]"
> 1000,,,50 to 100,1000 to 10000,,> 1000,,,,"COc1ccc(C#Cc2ccc3c(c2)C2(CC2)CN(CCCC(=O)O)C3)c(C)n1 [Compound 57, 4-(6′-((6-methoxy-2-methylpyridin-3-yl)ethynyl)-1′H-spiro[cyclopropane-1,4′-isoquinolin]-2′(3′H)-yl)butanoic acid]"
> 1000,,,50 to 100,100 to 1000,,> 1000,,,,"O=C(O)CCCN1Cc2ccc(OCc3ccc(F)cc3)cc2C2(CC2)C1 [Compound 17, 4-(6′-((4-Fluorobenzyl)oxy)-1′H-spiro[cyclopropane-1,4′-isoquinolin]-2′(3′H)-yl)butanoic acid]"
> 1000,,,50 to 100,1000 to 10000,,> 1000,,,,"CCOc1ccc(C#Cc2ccc3c(c2)C2(CC2)CN(CCCC(=O)O)C3)nc1 [Compound 54, 4-(6′-((5-ethoxypyridin-2-yl)ethynyl)-1′H-spiro[cyclopropane-1,4′-isoquinolin]-2′(3′H)-yl)butanoic acid]"
> 1000,,,> 100,100 to 1000,,> 1000,,,,"O=C(O)C1(CN2Cc3ccc(C#Cc4ccc(OC5CCCC5)nc4)cc3C3(CC3)C2)CC1 [Compound 9, 1-((6′-((6-(cyclopentyloxy)pyridin-3-yl)ethynyl)-1′H-spiro[cyclopropane-1,4′-isoquinolin]-2′(3′H)-yl)methyl)cyclopropanecarboxylic acid]"
,,,,,,,> 1000,29,60,"O=C(O)CCN1CCc2cc(C#Cc3cccc(F)c3F)ccc2C1 [Reference compound 1, 3-(6-((2,3-difluorophenyl)ethynyl)-3,4-dihydroisoquinolin-2(1H)-yl)propanoic acid, reference compound]"
> 1000,,,> 100,< 10,,> 1000,,,,"CC(CC(=O)O)CN1Cc2ccc(C#Cc3ccc(OC(C)C)cc3)cc2C2(CC2)C1 (stereo not drawn) [Compound 62, 4-(6′-((4-isopropoxyphenyl)ethynyl)-1′H-spiro[cyclopropane-1,4′-isoquinolin]-2′(3′H)-yl)-3-methylbutanoic acid]"
> 1000,,,50 to 100,100 to 1000,,> 1000,,,,"CCOc1ncc(C#Cc2ccc3c(c2)C2(CC2)CN(CCCC(=O)O)C3)cc1F [Compound 51, 4-(6′-((6-ethoxy-5-fluoropyridin-3-yl)ethynyl)-1′H-spiro[cyclopropane-1,4′-isoquinolin]-2′(3′H)-yl)butanoic acid]"
